Experiments:
[1] = test system: Epidermal growth factor receptor (Homo sapiens), P00533 [UNDEFINED MUTATION]; test: Selectivity interaction (ProQinase) EUB0000171b EGFR; conditions: at 5 µM
[2] = biological target: T1, 5-hydroxytryptamine receptor 1A (Homo sapiens) (UniProt P08908); test: Selectivity interaction (Safety Panel 44tm (Eurofins)) EUB0000162b HTR1A; conditions: at 10 µM
T1 sequence (whole entry): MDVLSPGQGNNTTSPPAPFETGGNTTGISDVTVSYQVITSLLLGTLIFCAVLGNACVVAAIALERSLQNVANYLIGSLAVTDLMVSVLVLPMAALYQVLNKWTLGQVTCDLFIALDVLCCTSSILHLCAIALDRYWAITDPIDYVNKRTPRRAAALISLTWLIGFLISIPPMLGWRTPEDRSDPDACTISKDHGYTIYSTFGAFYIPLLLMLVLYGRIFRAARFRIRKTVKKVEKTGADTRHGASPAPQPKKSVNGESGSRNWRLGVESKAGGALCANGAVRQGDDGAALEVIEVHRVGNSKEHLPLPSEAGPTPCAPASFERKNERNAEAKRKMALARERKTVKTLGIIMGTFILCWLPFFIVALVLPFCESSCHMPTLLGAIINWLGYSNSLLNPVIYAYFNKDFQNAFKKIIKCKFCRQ

[3] = biological target: T2, Megakaryocyte-associated tyrosine-protein kinase (Homo sapiens) (UniProt P42679); test: Selectivity interaction (KinomeScan (DiscoverX)) EUB0000595a MATK; conditions: at 10 µM
T2 sequence (whole entry): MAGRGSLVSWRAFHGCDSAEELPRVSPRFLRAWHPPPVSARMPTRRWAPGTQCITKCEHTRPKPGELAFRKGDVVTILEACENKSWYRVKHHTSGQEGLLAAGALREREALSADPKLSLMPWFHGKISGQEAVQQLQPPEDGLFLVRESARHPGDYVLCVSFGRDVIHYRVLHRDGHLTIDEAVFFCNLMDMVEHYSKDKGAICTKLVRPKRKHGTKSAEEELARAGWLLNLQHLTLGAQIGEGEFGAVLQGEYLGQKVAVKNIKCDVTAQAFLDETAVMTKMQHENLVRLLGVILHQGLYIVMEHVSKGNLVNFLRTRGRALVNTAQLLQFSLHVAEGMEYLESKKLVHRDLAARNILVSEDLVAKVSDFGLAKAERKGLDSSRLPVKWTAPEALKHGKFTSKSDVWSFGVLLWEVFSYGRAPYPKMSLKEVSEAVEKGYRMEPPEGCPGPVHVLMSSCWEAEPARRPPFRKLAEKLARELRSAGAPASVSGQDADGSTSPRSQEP

[4] = test system: eIF-2-alpha kinase GCN2 (Homo sapiens), Q9P2K8 [S808G]; test: Selectivity interaction (KinomeScan (DiscoverX)) EUB0000229b EIF2AK4; conditions: at 10 µM
Chain of eIF-2-alpha kinase GCN2 (Homo sapiens), Q9P2K8 [S808G] (Q9P2K8 whole entry S808G): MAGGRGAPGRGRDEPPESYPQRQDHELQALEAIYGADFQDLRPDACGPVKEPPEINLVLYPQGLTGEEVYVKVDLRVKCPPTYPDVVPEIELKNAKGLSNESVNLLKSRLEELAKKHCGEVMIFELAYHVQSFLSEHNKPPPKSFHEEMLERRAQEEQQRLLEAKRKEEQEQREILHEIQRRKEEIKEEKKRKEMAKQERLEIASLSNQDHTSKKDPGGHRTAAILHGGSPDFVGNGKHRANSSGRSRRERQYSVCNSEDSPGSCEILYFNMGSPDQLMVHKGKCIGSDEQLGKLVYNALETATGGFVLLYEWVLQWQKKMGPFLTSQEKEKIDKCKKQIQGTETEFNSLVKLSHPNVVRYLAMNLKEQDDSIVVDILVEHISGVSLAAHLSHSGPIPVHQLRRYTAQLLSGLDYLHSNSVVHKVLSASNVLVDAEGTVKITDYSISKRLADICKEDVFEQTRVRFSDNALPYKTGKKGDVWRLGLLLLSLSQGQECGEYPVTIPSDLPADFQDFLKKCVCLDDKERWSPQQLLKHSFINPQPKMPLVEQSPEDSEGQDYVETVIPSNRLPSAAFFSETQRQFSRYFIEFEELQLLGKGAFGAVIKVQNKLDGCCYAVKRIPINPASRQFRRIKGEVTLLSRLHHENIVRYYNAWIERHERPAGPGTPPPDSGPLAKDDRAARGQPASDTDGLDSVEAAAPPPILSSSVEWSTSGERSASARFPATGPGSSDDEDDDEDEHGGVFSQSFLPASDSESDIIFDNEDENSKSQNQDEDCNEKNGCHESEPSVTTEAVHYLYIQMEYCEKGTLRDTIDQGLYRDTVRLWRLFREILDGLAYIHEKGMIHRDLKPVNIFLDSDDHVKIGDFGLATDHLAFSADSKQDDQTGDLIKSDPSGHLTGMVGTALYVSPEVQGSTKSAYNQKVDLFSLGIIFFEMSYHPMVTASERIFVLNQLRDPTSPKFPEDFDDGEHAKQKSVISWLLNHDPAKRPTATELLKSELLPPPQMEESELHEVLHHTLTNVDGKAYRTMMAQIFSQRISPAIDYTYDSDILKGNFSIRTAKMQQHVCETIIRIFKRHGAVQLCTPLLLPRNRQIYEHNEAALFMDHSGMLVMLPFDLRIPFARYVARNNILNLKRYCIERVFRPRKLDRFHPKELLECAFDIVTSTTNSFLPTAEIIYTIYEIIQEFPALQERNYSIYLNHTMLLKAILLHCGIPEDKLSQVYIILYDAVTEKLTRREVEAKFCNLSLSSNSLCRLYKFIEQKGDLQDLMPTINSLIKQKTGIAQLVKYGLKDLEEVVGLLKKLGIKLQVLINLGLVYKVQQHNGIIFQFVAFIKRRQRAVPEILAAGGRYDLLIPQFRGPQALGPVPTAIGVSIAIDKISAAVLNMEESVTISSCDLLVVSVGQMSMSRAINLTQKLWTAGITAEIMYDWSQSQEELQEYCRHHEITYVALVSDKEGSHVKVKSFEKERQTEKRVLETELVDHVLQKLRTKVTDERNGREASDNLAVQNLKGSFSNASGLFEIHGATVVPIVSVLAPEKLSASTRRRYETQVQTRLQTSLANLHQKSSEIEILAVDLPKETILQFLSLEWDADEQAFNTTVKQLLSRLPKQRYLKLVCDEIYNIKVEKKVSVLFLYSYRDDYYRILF

[5] = biological target: T3, Bone morphogenetic protein receptor type-2 (Homo sapiens) (UniProt Q13873); test: Selectivity interaction (KinomeScan (DiscoverX)) EUB0000092b BMPR2; conditions: at 10 µM
T3 sequence (whole entry): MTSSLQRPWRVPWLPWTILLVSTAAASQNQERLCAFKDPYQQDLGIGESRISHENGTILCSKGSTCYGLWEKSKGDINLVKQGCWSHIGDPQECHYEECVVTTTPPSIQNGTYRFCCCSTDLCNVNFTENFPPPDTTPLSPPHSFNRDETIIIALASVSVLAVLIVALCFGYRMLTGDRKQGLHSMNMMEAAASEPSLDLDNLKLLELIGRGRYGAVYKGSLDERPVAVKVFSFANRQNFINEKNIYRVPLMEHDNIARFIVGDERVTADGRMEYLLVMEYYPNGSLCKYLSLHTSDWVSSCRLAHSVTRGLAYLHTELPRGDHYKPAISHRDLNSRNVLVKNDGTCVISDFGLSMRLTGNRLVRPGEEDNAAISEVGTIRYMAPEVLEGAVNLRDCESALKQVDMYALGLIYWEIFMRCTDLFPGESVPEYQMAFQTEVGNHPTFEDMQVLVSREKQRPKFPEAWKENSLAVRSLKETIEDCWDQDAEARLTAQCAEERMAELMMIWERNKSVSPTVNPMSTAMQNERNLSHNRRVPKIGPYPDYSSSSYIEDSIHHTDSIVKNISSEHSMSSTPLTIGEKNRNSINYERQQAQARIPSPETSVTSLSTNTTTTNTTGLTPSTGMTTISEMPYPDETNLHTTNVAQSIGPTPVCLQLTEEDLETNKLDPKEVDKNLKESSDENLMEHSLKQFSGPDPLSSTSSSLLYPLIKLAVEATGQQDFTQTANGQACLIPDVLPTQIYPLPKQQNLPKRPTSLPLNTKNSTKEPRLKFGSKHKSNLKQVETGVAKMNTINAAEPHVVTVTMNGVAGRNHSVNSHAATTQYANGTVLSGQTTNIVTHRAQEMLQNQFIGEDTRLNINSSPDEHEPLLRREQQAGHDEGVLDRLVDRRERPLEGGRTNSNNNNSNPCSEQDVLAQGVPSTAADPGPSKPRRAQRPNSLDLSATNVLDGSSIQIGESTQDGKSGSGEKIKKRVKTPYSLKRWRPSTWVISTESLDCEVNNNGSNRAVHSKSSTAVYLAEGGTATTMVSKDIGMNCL

[6] = biological target: T4, Serine/threonine-protein kinase 17B (Homo sapiens) (UniProt O94768); conditions: at 10 µM
T4 sequence (whole entry): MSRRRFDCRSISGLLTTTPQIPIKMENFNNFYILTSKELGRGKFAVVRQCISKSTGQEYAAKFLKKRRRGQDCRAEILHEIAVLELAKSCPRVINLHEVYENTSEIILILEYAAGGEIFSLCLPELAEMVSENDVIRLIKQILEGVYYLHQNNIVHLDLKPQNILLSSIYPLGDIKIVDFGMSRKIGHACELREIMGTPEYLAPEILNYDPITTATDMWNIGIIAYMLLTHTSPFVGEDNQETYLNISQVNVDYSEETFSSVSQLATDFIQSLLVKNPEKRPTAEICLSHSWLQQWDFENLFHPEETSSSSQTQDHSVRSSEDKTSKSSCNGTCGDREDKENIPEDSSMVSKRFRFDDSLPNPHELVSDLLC

Chain of Epidermal growth factor receptor (Homo sapiens), P00533 [UNDEFINED MUTATION] (P00533 whole entry, looked up, stated change not applied): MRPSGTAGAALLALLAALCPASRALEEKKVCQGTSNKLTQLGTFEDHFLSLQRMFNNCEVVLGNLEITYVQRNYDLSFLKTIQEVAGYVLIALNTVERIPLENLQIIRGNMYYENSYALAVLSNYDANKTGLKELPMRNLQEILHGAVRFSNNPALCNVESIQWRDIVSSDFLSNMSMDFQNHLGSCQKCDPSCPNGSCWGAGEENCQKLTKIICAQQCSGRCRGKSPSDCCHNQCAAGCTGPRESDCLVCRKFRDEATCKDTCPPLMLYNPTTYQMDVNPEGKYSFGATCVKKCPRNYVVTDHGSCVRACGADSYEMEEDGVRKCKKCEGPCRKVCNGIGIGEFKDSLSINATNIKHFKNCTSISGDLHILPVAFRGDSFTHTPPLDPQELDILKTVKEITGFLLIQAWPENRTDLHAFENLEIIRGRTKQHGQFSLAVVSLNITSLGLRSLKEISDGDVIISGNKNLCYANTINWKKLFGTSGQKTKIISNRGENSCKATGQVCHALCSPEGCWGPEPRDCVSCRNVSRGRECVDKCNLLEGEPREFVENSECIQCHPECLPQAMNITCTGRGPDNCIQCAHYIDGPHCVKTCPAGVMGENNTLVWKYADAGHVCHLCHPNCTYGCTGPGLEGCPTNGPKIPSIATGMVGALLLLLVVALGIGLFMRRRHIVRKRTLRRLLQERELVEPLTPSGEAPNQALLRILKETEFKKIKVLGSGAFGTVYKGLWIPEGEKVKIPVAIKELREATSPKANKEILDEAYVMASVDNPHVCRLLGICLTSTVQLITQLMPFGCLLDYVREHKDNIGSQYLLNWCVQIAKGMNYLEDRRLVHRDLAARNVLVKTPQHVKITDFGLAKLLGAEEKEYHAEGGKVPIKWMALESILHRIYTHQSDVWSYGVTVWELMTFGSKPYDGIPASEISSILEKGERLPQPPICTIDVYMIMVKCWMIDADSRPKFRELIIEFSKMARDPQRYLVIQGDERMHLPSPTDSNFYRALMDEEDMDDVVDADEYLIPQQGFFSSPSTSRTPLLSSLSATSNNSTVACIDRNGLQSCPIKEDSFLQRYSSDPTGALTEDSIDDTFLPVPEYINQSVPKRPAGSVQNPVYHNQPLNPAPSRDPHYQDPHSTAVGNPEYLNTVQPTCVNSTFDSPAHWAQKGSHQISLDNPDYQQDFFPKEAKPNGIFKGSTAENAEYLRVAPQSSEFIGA

## C=CC(=O)Nc1cccc(C(=O)Nc2ccc(Nc3cc(-c4[nH]c(SC)nc4C)ccn3)cc2)c1
[1]
  % of control: 101%

## CN(C)C(=O)Cn1cc(-c2ccc(-c3cncc4ccccc34)cc2)cn1
[2]
  % of control: 50%

## COCC(=O)NC/C=C/c1ccc2ncnc(Nc3ccc(Oc4ccc(C)nc4)c(C)c3)c2c1 [CP-724714]
[3]
  % of control: 100%

## COc1cc(N(C)c2ccnc3ccc(C(F)(F)F)cc23)cc(OC)c1OC
[4]
  % binding: 100%

## CCC(=O)N1CCN(c2ccc(-n3c(=O)ccc4cnc5ccc(-c6cnc7ccccc7c6)cc5c43)cc2C(F)(F)F)CC1
[5]
  % of control: 85%

## Cc1cc([C@@H](C)Nc2ccccc2C(=O)O)c2nc(N3CCOCC3)cc(=O)n2c1 [AZD-6482]
[6]
  % of control: 100%

From ChEMBL document CHEMBL5465560, “Selectivity Literature for EUbOPEN Chemogenomic Library” (2024)
